Test results published in US6358885B1, “Substituted phenylheterocyclic herbicides” (Mississippi State University, priority 1992, dated 2002).

Assays:
Test in all cases: Test B preemergence/postemergence greenhouse plant response rating 0 to 10
soybean = type: in vivo, Glycine max; settings: for Plant response rating, Soybean: 0 to 10 scale
Procedure, shortened: (§1)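 Both application timings were run together: seeds got compound preemergence, and established seedlings (two to eighteen cm) got it postemergence. Non-phytotoxic solvent carried the chemical. Ratings are visual, versus controls, at twelve to sixteen days.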

wild oat = type: in vivo, Avena fatua; settings: for Plant response rating, Wild oat: 0 to 10 scale
Procedure, shortened: as §1

crabgrass = type: in vivo, Digitaria spp.; settings: for Plant response rating, Crabgrass: 0 to 10 scale
Procedure, shortened: as §1

blackgrass = type: in vivo, Alopecurus myosuroides; settings: for Plant response rating, Blackgrass: 0 to 10 scale
Procedure, shortened: as §1

wheat = type: in vivo, Triticum aestivum; settings: for Plant response rating, Wheat: 0 to 10 scale
Procedure, shortened: as §1

velvetleaf = type: in vivo, Abutilon theophrasti; settings: for Plant response rating, Velvetleaf: 0 to 10 scale
Procedure, shortened: as §1

cocklebur = type: in vivo, Xanthium pensylvanicum; settings: for Plant response rating, Cocklebur: Rate 50 g/ha, 0 to 10 scale
Procedure, shortened: as §1

rape = type: in vivo, Brassica napus; settings: for Plant response rating, Rape: 0 to 10 scale
Procedure, shortened: as §1

cheatgrass = type: in vivo, Bromus secalinus; settings: for Plant response rating, Cheatgrass: 0 to 10 scale
Procedure, shortened: as §1

rice = type: in vivo, Oryza sativa; settings: for Plant response rating, Rice: 0 to 10 scale
Procedure, shortened: as §1

sorghum = type: in vivo, Sorghum bicolor; settings: for Plant response rating, Sorghum: 0 to 10 scale
Procedure, shortened: as §1

cotton = type: in vivo, Gossypium hirsutum; settings: for Plant response rating, Cotton: 0 to 10 scale
Procedure, shortened: as §1

barley = type: in vivo, Hordeum vulgare; settings: for Plant response rating, Barley: 0 to 10 scale
Procedure, shortened: as §1

wild buckwheat = type: in vivo, Polygonum convolvulus; settings: for Plant response rating, Wild buckwheat: 0 to 10 scale
Procedure, shortened: as §1

sugar beet = type: in vivo, Beta vulgaris; settings: for Plant response rating, Sugar beet: 0 to 10 scale
Procedure, shortened: as §1

corn = type: in vivo, Zea mays; settings: for Plant response rating, Corn: 0 to 10 scale
Procedure, shortened: as §1

giant foxtail = type: in vivo, Setaria faberii; settings: for Plant response rating, Giant foxtail: 0 to 10 scale
Procedure, shortened: as §1

purple nutsedge = type: in vivo, Cyperus rotundus; settings: for Plant response rating, Nutsedge: 0 to 10 scale
Procedure, shortened: as §1

morningglory = type: in vivo, Ipomoea hederacea; settings: for Plant response rating, Morningglory: 0 to 10 scale
Procedure, shortened: as §1

bedstraw = type: in vivo, Galium aparine; settings: for Plant response rating, Bedstraw: 0 to 10 scale
Procedure, shortened: as §1

barnyardgrass = type: in vivo, Echinochloa crus-galli; settings: for Plant response rating, Barnyardgrass: 0 to 10 scale
Procedure, shortened: as §1

lambsquarters = type: in vivo, Chenopodium album; settings: for Plant response rating, Lambsquarter: 0 to 10 scale
Procedure, shortened: as §1

chickweed = type: in vivo, Stellaria media; settings: for Plant response rating, Chickweed: 0 to 10 scale
Procedure, shortened: as §1

FCCCOc1cc(-c2nn3c(c2Cl)CCCC3)c(F)cc1Cl [Compound 79]
Plant response rating, Soybean (soybean; POSTEMERGENCE, Rate 50 g/ha): 7
Plant response rating, Soybean (soybean; PREEMERGENCE, Rate 50 g/ha): 0
Plant response rating (0 to 10 scale), Soybean (soybean; PREEMERGENCE, Rate 200 g/ha): 0
Plant response rating, Soybean (soybean; Rate 200 g/ha, POSTEMERGENCE): 8
Plant response rating, Wild oat (wild oat; POSTEMERGENCE, Rate 50 g/ha): 4
Plant response rating, Wild oat (wild oat; PREEMERGENCE, Rate 50 g/ha): 3
Plant response rating (0 to 10 scale), Wild oat (wild oat; PREEMERGENCE, Rate 200 g/ha): 6
Plant response rating, Wild oat (wild oat; Rate 200 g/ha, POSTEMERGENCE): 5
Plant response rating, Crabgrass (crabgrass; POSTEMERGENCE, Rate 50 g/ha): 3
Plant response rating, Crabgrass (crabgrass; PREEMERGENCE, Rate 50 g/ha): 4
Plant response rating (0 to 10 scale), Crabgrass (crabgrass; PREEMERGENCE, Rate 200 g/ha): 6
Plant response rating, Crabgrass (crabgrass; Rate 200 g/ha, POSTEMERGENCE): 5
Plant response rating, Blackgrass (blackgrass; POSTEMERGENCE, Rate 50 g/ha): 3
Plant response rating, Blackgrass (blackgrass; PREEMERGENCE, Rate 50 g/ha): 1
Plant response rating (0 to 10 scale), Blackgrass (blackgrass; PREEMERGENCE, Rate 200 g/ha): 5
Plant response rating, Blackgrass (blackgrass; Rate 200 g/ha, POSTEMERGENCE): 5
Plant response rating, Wheat (wheat; POSTEMERGENCE, Rate 50 g/ha): 5
Plant response rating, Wheat (wheat; PREEMERGENCE, Rate 50 g/ha): 0
Plant response rating (0 to 10 scale), Wheat (wheat; PREEMERGENCE, Rate 200 g/ha): 2
Plant response rating, Wheat (wheat; Rate 200 g/ha, POSTEMERGENCE): 6
Plant response rating, Velvetleaf (velvetleaf; POSTEMERGENCE, Rate 50 g/ha): 8
Plant response rating, Velvetleaf (velvetleaf; PREEMERGENCE, Rate 50 g/ha): 5
Plant response rating (0 to 10 scale), Velvetleaf (velvetleaf; PREEMERGENCE, Rate 200 g/ha): 10
Plant response rating, Velvetleaf (velvetleaf; Rate 200 g/ha, POSTEMERGENCE): 10
Plant response rating, Cocklebur (cocklebur; POSTEMERGENCE): 8
Plant response rating, Cocklebur (cocklebur; PREEMERGENCE): 0
Plant response rating (0 to 10 scale), Cocklebur (cocklebur; PREEMERGENCE, Rate 200 g/ha): 6
Plant response rating, Rape (rape; POSTEMERGENCE, Rate 50 g/ha): 8
Plant response rating, Rape (rape; PREEMERGENCE, Rate 50 g/ha): 3
Plant response rating (0 to 10 scale), Rape (rape; PREEMERGENCE, Rate 200 g/ha): 6
Plant response rating, Rape (rape; Rate 200 g/ha, POSTEMERGENCE): 9
Plant response rating, Cheatgrass (cheatgrass; POSTEMERGENCE, Rate 50 g/ha): 3
Plant response rating, Cheatgrass (cheatgrass; PREEMERGENCE, Rate 50 g/ha): 2
Plant response rating (0 to 10 scale), Cheatgrass (cheatgrass; PREEMERGENCE, Rate 200 g/ha): 4
Plant response rating, Cheatgrass (cheatgrass; Rate 200 g/ha, POSTEMERGENCE): 4
Plant response rating, Rice (rice; POSTEMERGENCE, Rate 50 g/ha): 5
Plant response rating, Rice (rice; PREEMERGENCE, Rate 50 g/ha): 0
Plant response rating (0 to 10 scale), Rice (rice; PREEMERGENCE, Rate 200 g/ha): 0
Plant response rating, Rice (rice; Rate 200 g/ha, POSTEMERGENCE): 6
Plant response rating, Sorghum (sorghum; POSTEMERGENCE, Rate 50 g/ha): 6
Plant response rating, Sorghum (sorghum; PREEMERGENCE, Rate 50 g/ha): 0
Plant response rating (0 to 10 scale), Sorghum (sorghum; PREEMERGENCE, Rate 200 g/ha): 0
Plant response rating, Sorghum (sorghum; Rate 200 g/ha, POSTEMERGENCE): 7
Plant response rating, Cotton (cotton; POSTEMERGENCE, Rate 50 g/ha): 10
Plant response rating, Cotton (cotton; PREEMERGENCE, Rate 50 g/ha): 0
Plant response rating (0 to 10 scale), Cotton (cotton; PREEMERGENCE, Rate 200 g/ha): 0
Plant response rating, Cotton (cotton; Rate 200 g/ha, POSTEMERGENCE): 10
Plant response rating, Barley (barley; POSTEMERGENCE, Rate 50 g/ha): 4
Plant response rating, Barley (barley; PREEMERGENCE, Rate 50 g/ha): 0
Plant response rating (0 to 10 scale), Barley (barley; PREEMERGENCE, Rate 200 g/ha): 2
Plant response rating, Barley (barley; Rate 200 g/ha, POSTEMERGENCE): 4
Plant response rating, Wild buckwheat (wild buckwheat; POSTEMERGENCE, Rate 50 g/ha): 10
Plant response rating, Wild buckwheat (wild buckwheat; PREEMERGENCE, Rate 50 g/ha): 0
Plant response rating (0 to 10 scale), Wild buckwheat (wild buckwheat; PREEMERGENCE, Rate 200 g/ha): 9
Plant response rating, Wild buckwheat (wild buckwheat; Rate 200 g/ha, POSTEMERGENCE): 10
Plant response rating, Sugar beet (sugar beet; POSTEMERGENCE, Rate 50 g/ha): 10
Plant response rating, Sugar beet (sugar beet; PREEMERGENCE, Rate 50 g/ha): 9
Plant response rating (0 to 10 scale), Sugar beet (sugar beet; PREEMERGENCE, Rate 200 g/ha): 10
Plant response rating, Sugar beet (sugar beet; Rate 200 g/ha, POSTEMERGENCE): 10
Plant response rating, Corn (corn; POSTEMERGENCE, Rate 50 g/ha): 3
Plant response rating, Corn (corn; PREEMERGENCE, Rate 50 g/ha): 0
Plant response rating (0 to 10 scale), Corn (corn; PREEMERGENCE, Rate 200 g/ha): 0
Plant response rating, Corn (corn; Rate 200 g/ha, POSTEMERGENCE): 5
Plant response rating, Giant foxtail (giant foxtail; POSTEMERGENCE, Rate 50 g/ha): 4
Plant response rating, Giant foxtail (giant foxtail; PREEMERGENCE, Rate 50 g/ha): 3
Plant response rating (0 to 10 scale), Giant foxtail (giant foxtail; PREEMERGENCE, Rate 200 g/ha): 9
Plant response rating, Giant foxtail (giant foxtail; Rate 200 g/ha, POSTEMERGENCE): 6
Plant response rating, Nutsedge (purple nutsedge; POSTEMERGENCE, Rate 50 g/ha): 0
Plant response rating, Nutsedge (purple nutsedge; PREEMERGENCE, Rate 50 g/ha): 0
Plant response rating (0 to 10 scale), Nutsedge (purple nutsedge; PREEMERGENCE, Rate 200 g/ha): 0
Plant response rating, Nutsedge (purple nutsedge; Rate 200 g/ha, POSTEMERGENCE): 0
Plant response rating, Morningglory (morningglory; POSTEMERGENCE, Rate 50 g/ha): 10
Plant response rating, Morningglory (morningglory; PREEMERGENCE, Rate 50 g/ha): 0
Plant response rating (0 to 10 scale), Morningglory (morningglory; PREEMERGENCE, Rate 200 g/ha): 7
Plant response rating, Morningglory (morningglory; Rate 200 g/ha, POSTEMERGENCE): 10
Plant response rating, Bedstraw (bedstraw; POSTEMERGENCE, Rate 50 g/ha): 5
Plant response rating, Bedstraw (bedstraw; PREEMERGENCE, Rate 50 g/ha): 2
Plant response rating (0 to 10 scale), Bedstraw (bedstraw; PREEMERGENCE, Rate 200 g/ha): 7
Plant response rating, Bedstraw (bedstraw; Rate 200 g/ha, POSTEMERGENCE): 7
Plant response rating, Barnyardgrass (barnyardgrass; POSTEMERGENCE, Rate 50 g/ha): 4
Plant response rating, Barnyardgrass (barnyardgrass; PREEMERGENCE, Rate 50 g/ha): 3
Plant response rating (0 to 10 scale), Barnyardgrass (barnyardgrass; PREEMERGENCE, Rate 200 g/ha): 6
Plant response rating, Barnyardgrass (barnyardgrass; Rate 200 g/ha, POSTEMERGENCE): 7
Plant response rating, Lambsquarter (lambsquarters; POSTEMERGENCE, Rate 50 g/ha): 9
Plant response rating, Lambsquarter (lambsquarters; PREEMERGENCE, Rate 50 g/ha): 9
Plant response rating (0 to 10 scale), Lambsquarter (lambsquarters; PREEMERGENCE, Rate 200 g/ha): 10
Plant response rating, Lambsquarter (lambsquarters; Rate 200 g/ha, POSTEMERGENCE): 10
Plant response rating, Chickweed (chickweed; POSTEMERGENCE, Rate 50 g/ha): 4
Plant response rating, Chickweed (chickweed; PREEMERGENCE, Rate 50 g/ha): 0
Plant response rating (0 to 10 scale), Chickweed (chickweed; PREEMERGENCE, Rate 200 g/ha): 3
Plant response rating, Chickweed (chickweed; Rate 200 g/ha, POSTEMERGENCE): 5
